Experiments:
[1] = Indirect calorimetry, physical activity and food intake; format: in vivo, mouse
From the text: To assess whether miR-133 ASO treatment leads to increased whole-body energy expenditure, Applicant carried out indirect calorimetry studies at 2-3 months after ASO treatment on control- and miR-133 ASO treated mice (C57BL/6, male, individually caged, n=5 per treatment group per diet group; FIGS. 6C & 7B). […] Intriguingly, this amount of energy expenditure is coincident with the increase of mitochondrial respirometry-measured energy expenditure in miR-133 ASO treated TA muscles after adjustment with TA muscle mass (FIG. 7A; 0.3 cal·hour^−1·le^−1×75 mg=0.0225 kcal·hour^−1).
This discrepancy may be related to the abnormally low respiratory exchange ratio (˜0.76) in the control mice fed with HFD (FIG. 7D), which indicates an increased proportion of lipid oxidation in the control mice. […] In addition, miR-133 ASO treatment also led to much improved glucose tolerance in both diet groups (FIGS. 6E & 7F).
Whole-body O2 consumption and CO2 production was measured using an open circuit four-chamber indirect calorimetry system with automatic temperature and light controls (Columbus Instruments). Physical activities during indirect calorimetry was measured using infrared laser beam sets. Mice had access ad libitum to food and water in respiration chambers. Data were recorded for a 24 hour period with light between 06:00-18:00.

miR-133a and miR-133b = experiment: RT-qPCR of miR-133 expression after intramuscular ASO injection; format: in vivo, mouse
From the text: (§1) To investigate miR-133 function in brown adipose determination of satellite cells in vivo, Applicant synthesized miR-133 antagomiR (miR-133 antisense oligonucleotide (ASO)) with an antisense sequence to both miR-133a and miR-133b, as well as a control “antagomiR” (control ASO) with the same chemical modifications and not antisense to any mouse gene or EST sequence (see Experimental Procedures). Applicant performed lineage tracing to distinguish effects of miR-133 ASO on satellite cells versus other cell types. Six week old Pax7-CreER; R26R-tdTomato mice were treated with tamoxifin as before (5 consecutive daily injections), then aged to 10 weeks of age prior to initiating the experiment. Control ASO versus miR-133 ASO were injected into tibialis anterior (TA) muscles 3 days following saline injection (quiescent state) or cardiotoxin injection (to induce activation). After one month, RT-qPCR was performed using RNA isolated from several tissues to evaluate the efficacy and scope of miR-133 ASO administration.
(§2) To induce brown adipocytes in vivo, 10 mg/mL Cardiotoxin solution (50 μl) was intramuscularly injected into TA muscles of 10-week old Pax7-CreER/R26R-tdTomato mice (FIG. 4) or C57BL/6 mice (FIG. 5 and FIG. 6). Alternatively, frozen injury was performed by applying liquid nitrogen cooled tweezers tips directly onto the anterior sides of TA muscles. After 3 days, 20 μg of miR-133 antagomiR or control antagomiR in saline (50 μl) was intramuscularly injected into the same injured TA muscles (on right hindlimbs). To test efficacy of miR-133 ASO in intact muscles, saline, instead of Cardiotoxin, was injected to TA muscles before miR-133 ASO administration (FIGS. 4A, 4B). miR-133 antagomiR and scramble antagomiR were designed as previously described (Krutzfeldt et al., 2005).
Total RNA was extracted from cells by TRIzol or Arcturus® PicoPure® RNA Isolation Kit (Applied Biosystems) following manufactures' recommendations. […]

TA muscles = experiment: [18F]-FDG PET imaging of treated TA muscles; format: in vivo, mouse; conditions: after CL316,243-stimulated sympathetic activation; normalized to contralateral TA muscles; 2 months after treatment
From the text: Metabolically active BAT has been identified in adult human by [^18F]-fluorodeoxyglucose positron emission tomography ([^18F]-FDG PET), due to dramatic glucose uptake by this tissue after sympathetic activation (Nedergaard et al., 2007). To visualize active brown adipose tissue within muscle, Applicant performed [^18F]-FDG PET imaging on control- or miR-133 ASO treated mice (n=5 for 133 ASO treated mice, n=4 for control treated muscle; 2 months after treatment) after acute sympathetic activation by selective β3-adrenergic receptor agonist, CL316,243 (FIG. 5E). Applicant observed a dramatic increase of FDG uptake in miR-133 ASO treated TA muscles compared to contralateral TA muscles or TA muscles within control ASO treated mice. To rule out possible direct and indirect effects of CL316,243 on glucose/FDG uptake by skeletal muscle cells, Applicant normalized FDG activities derived from ROIs of treated TA muscles to those of contralateral TA muscles (FIG. 5F). […] Such a drastic increase was not observed without the sympathetic activation preceding anesthesia (baseline).
Mouse PET imaging was performed with an Inveon PET scanner (Siemens Preclinical Solutions, Knoxyille, Tenn., USA). Control- or miR-133 ASO treated C57BL/6 male mice fed with regular diet were anesthetized under 2% isoflurane. […]

[2] = Body weight and fat depot weights after ASO treatment during TA muscle regeneration; format: in vivo, mouse
Procedure: Treated and control C57BL/6 male mice were raised on either RD or HFD in individual cages at 22° C. (n=5 per treatment per diet group). In both diet groups, miR-133 ASO treated mice were obviously leaner than the control mice at 4-month after treatment (FIG. 6A).
as §2

let-7a microRNA = experiment: RT-qPCR of let-7a expression after intramuscular ASO injection (specificity); format: in vivo, mouse; conditions: intramuscular administration
From the text: as §1
To induce brown adipocytes in vivo, 10 mg/mL Cardiotoxin solution (50 μl) was intramuscularly injected into TA muscles of 10-week old Pax7-CreER/R26R-tdTomato mice (FIG. 4) or C57BL/6 mice (FIG. 5 and FIG. 6). Alternatively, frozen injury was performed by applying liquid nitrogen cooled tweezers tips directly onto the anterior sides of TA muscles. […]

IL-1β and TNF-α = conditions: mouse, in vivo

## *mA*mUmAmGmCmUmGmGmUmUmGmAmAmGmGmGmGmAmC*mC*mA*mA*mAChl [miR-133 ASO]
[1]; HFD, dark cycle
  energy expenditure or physical activity compared to control mice: No significant increase
[1]; HFD, light cycle
  physical activities: without difference
  total energy expenditure: significantly increased
[1]; RD, dark cycle
  energy expenditure: conspicuously high
  physical activities: increased
[1]; RD, light cycle
  physical activities: without change
[1]; RD, light cycle, 2-3 months after treatment
  total energy expenditure: significant increase
[1]; both diet groups
  24-hour food intake versus control mice: comparable
miR-133a and miR-133b; ASO injected into resting muscles
  miR-133a/b expression in the contralateral TA muscles: repressed
miR-133a and miR-133b; intramuscular administration
  miR-133 expression in the myocardium: unaffected
miR-133a and miR-133b; intramuscular, one month after injection, resting or regenerating muscle
  miR-133a and miR-133b expression within the injected TA muscles: striking reduction
TA muscles
  increase of glucose/FDG uptake compared to control: 1.3 fold
[2]; 4-month period after ASO administration, RD or HFD, C57BL/6 male
  gain in body weight: reduced gain in body weight
[2]; mouse, in vivo
  igWAT and epiWAT weights: significant reduction
  mass of iBAT depots and treated TA muscles: unaffected
let-7a microRNA
  let-7a microRNA expression: no effect
IL-1β and TNF-α
  expression of IL-1β and TNF-α between control- and treated muscles: no difference
